The source of these data is patent publication US10538535B2, “Antitumoral compounds” (priority 2017, dated 2020).

The subject of one data set is HT1080 tumors. Put plainly: In vivo xenograft, human fibrosarcoma HT1080. Particulars: HT1080; Day 28; iv Days 0, 7, 14; 4-R 0.30 mg/kg.
The next data set relates to HT29 cells. The experiment in a line: cells. The conditions noted are these: for CC50: read-out: LC50; for IC (TGI): read-out: TGI. An outline of the steps: (§1)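 Cells were seeded at 5000 per well, attached overnight in drug-free medium, then exposed for 72 hours to ten 2/5 serial dilutions (10 to 0.003 μg/mL, 1% final DMSO) in triplicate. Growth was measured by SRB staining against a time-zero plate, with NCI-algorithm four-parameter logistic fits.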

A further data set relates to A549 cells. The experiment in a line: cells. The conditions noted are these: for CC50: read-out: LC50; for IC (TGI): read-out: TGI. An outline of the steps:
as §1

A short description of data set [1]: MTMD (Maximum Tolerated Multiple Dose) determination, iv weekly x3. Type of data set: in vivo. The conditions noted are these: mice; iv/Q7dx3. An excerpt:
(§2) Female CD-1 or Athymic Nude-Fox1 nu/nu mice (Envigo) were utilized for all experiments. […] Animals were acclimated for five days prior to being individually tattoo-identified. Animal protocols were reviewed and approved according to the regional Institutional Animal Care and Use Committees.
(§3) Mice were randomly allocated into experimental groups and intravenously administered, once for the MTD (Maximum Tolerated Dose) determination or one administration a week during three consecutive weeks, for the MTMD (Maximum Tolerated Multiple Dose) determination study. The animals were administered with white formulation or with compound dissolved in the experimental formulation at different concentrations. The volume administered was always 10 mL/kg. Once administered, animals were monitored for clinical signs of systemic toxicity, changes in body weight and mortality up to 14 days after the administration.

A short description of data set [2]: MTD (Maximum Tolerated Dose) determination, single iv administration. The data set is classed as in vivo. The conditions noted are these: mice, iv/SD; for MTD at 14 days: female, mouse, in vivo.
Description: as §2, §3

The next data set relates to PSN1 cells. The experiment in a line: cells. Particulars: for CC50: read-out: LC50; for IC (TGI): read-out: TGI. An outline of the steps:
as §1

Another data set deals with MDA-MB-231 cells. The experiment in a line: cells. The conditions noted are these: for CC50: read-out: LC50; for IC (TGI): read-out: TGI. In a few lines: as §1
The subject of data set [3] is solid and non-solid tumour cell lines. Particulars: cited from earlier work.
The test system of data set [4] is xenografted human tumor cell lines (breast, kidney and ovarian cancer). Particulars: xenografted human tumor cell lines in mice, such as breast; cited from earlier work. In general terms: In xenograft studies the graft and the host belong to different species.
Setting [5] is: MDA-MB-231, 72 hours treatment, SRB.

Like-named read-outs stand apart in the source and are kept apart here.

Description for DU-145 tumors: Female athymic nu/nu mice (Harlan Laboratories Models, S. L. Barcelona, Spain or Envigo, Spain) were utilized for all experiments. Animal were housed in individually ventilated cages Sealsafe® Plus, Techniplast S.P.A.), up to ten per cage on a 12-hour light-dark cycle at 21-23° C. and 40-60% humidity. Mice were allowed free access to irradiated standard rodent diet (Tecklad 2914C) and sterilized water. Animals were acclimated for at least 5 days prior to tumor implantation with a tumor cell suspension.
Culture cells were passaged every 3 to 5 days upon reaching confluence Each male athymic mice was subcutaneously implanted (on the right flank using a 26 G needle and a 1 cc syringe) at 4-6 weeks of age with 5×10^6 DU-145 cells suspended in 0.05 mL of a solution consisting of 50% Matrigel® Matrix (Corning Incorporated Life Sciences) and 50% medium without serum or antibiotics.
(§4) Treatment tolerability was assessed by monitoring body weight evolution, clinical signs of systemic toxicity, as well as evidences of local damage in the injection site.
In xenograft studies with other cell lines: • Tumor volume was calculated using the equation (a·b^2)/2, where a: length (longest diameter) and b: width (shortest diameter) were measured in mm by using digital caliper (Fowler Sylvac, S235PAT).
(§5) Treatments producing >20% lethality and/or 20% net body weight loss were considered toxic.
Tables and figures summarize the data obtained from complete experimental groups, i.e. those groups keeping the initial number of animals, n=8-10.
Description for HT1080 tumors: Female athymic nu/nu mice (Harlan Laboratories Models, S. L. Barcelona, Spain or Envigo, Spain) were utilized for all experiments. Animal were housed in individually ventilated cages Sealsafe® Plus, Techniplast S.P.A.), up to ten per cage on a 12-hour light-dark cycle at 21-23° C. and 40-60% humidity. […] Animals were acclimated for at least 5 days prior to tumor implantation with a tumor cell suspension.
HT1080 cells were maintained in vitro at 37° C. with 5% CO2 in Minimum Essential Medium Eagle (MEME) (Sigma-Aldrich, Co). Each animal was orthotopically implanted into gastroecnemius muscle by an intramuscular injection using a 26 G needle and a 1 cc syringe at 4-6 weeks of age, with 10×10^6 HT1080 cells, suspended in serum free medium, without antibiotics.
as §4
In xenograft studies with HT1080 cell line: • Total diameter (tumor+leg) measurements were determined by using digital caliper (Fowler Sylvac, S235PAT).
as §5

`COc1c(C)cc2c(c1O)[C@@H]1[C@@H]3[C@@H]4SC[C@]5(N[C@@H](CO)Cc6c5[nH]c5ccccc65)C(=O)OC[C@@H](c5c6c(c(C)c(OC(C)=O)c54)OCO6)N3[C@@H](O)[C@H](C2)N1C` [Compound 4-R]: the “Total diameter (tumor + leg)” value with HT1080 tumors amounted to 18.0 mm. For the same compound, the CC50 in the data set with HT29 cells (Homo sapiens, HT-29, 72 h) was more than 127 nM; in the data set on A549 cells (Homo sapiens, A549, 72 h), more than 127 nM. In addition, in [1], the MTMD is listed as 0.30 mg/kg. Also, in data set [2], the MTD (in general, the highest dose tested that stayed within the study's limit of toxicity) at 14 days stood at 0.25 mg/kg.

`COc1c(C)cc2c(c1O)[C@@H]1[C@@H]3[C@@H]4SC[C@]5(N[C@H](CO)Cc6c5[nH]c5ccccc65)C(=O)OC[C@@H](c5c6c(c(C)c(OC(C)=O)c54)OCO6)N3[C@@H](O)[C@H](C2)N1C` [Compound 4-S]: the CC50 in the data set on HT29 cells (Homo sapiens, HT-29, 72 h) was more than 127 nM; in the data set with A549 cells (Homo sapiens, A549, 72 h), more than 127 nM. For the same compound, the “Median Tumor Volume” value in the data set on DU-145 tumors (Day 0, 4-S 1.00 mg/Kg iv Days 0, 7 and 14) came out at 126.2 mm^3; in the data set with DU-145 tumors (Day 3, 4-S 1.00 mg/Kg iv Days 0, 7 and 14) it was 102.4 mm^3; in the data set with DU-145 tumors (Day 5, 4-S 1.00 mg/Kg iv Days 0, 7 and 14) it was 119.5 mm^3; in the data set on DU-145 tumors (Day 7, 4-S 1.00 mg/Kg iv Days 0, 7 and 14) it was 149.5 mm^3; with DU-145 tumors (Day 10, 4-S 1.00 mg/Kg iv Days 0, 7 and 14), 216.8 mm^3; with DU-145 tumors (Day 12, 4-S 1.00 mg/Kg iv Days 0, 7 and 14) it was 181.4 mm^3. The “Median Tumor Volume” value amounted to 237.7 mm^3 in the data set with DU-145 tumors (Day 14, 4-S 1.00 mg/Kg iv Days 0, 7 and 14); 204.4 mm^3 in the data set on DU-145 tumors (Day 17, 4-S 1.00 mg/Kg iv Days 0, 7 and 14); 210.9 mm^3 in the data set with DU-145 tumors (Day 19, 4-S 1.00 mg/Kg iv Days 0, 7 and 14); 300.0 mm^3 with DU-145 tumors (Day 24, 4-S 1.00 mg/Kg iv Days 0, 7 and 14); 378.4 mm^3 with DU-145 tumors (Day 26, 4-S 1.00 mg/Kg iv Days 0, 7 and 14); 587.0 mm^3 in the data set on DU-145 tumors (Day 28, 4-S 1.00 mg/Kg iv Days 0, 7 and 14). For the same compound, the “Median Tumor Volume” value in the data set with DU-145 tumors (Day 31, 4-S 1.00 mg/Kg iv Days 0, 7 and 14) was determined as 650.3 mm^3. In data set [1], this compound gave an MTMD of 1.25 mg/kg. In data set [2], this compound returned an MTD at 14 days of 1 mg/kg.

Consider `COc1ccc2[nH]c3c(c2c1)C[C@H](CO)N[C@]31CS[C@@H]2c3c(OC(C)=O)c(C)c4c(c3[C@H](COC1=O)N1[C@@H]2[C@H]2c3c(cc(C)c(OC)c3O)C[C@@H]([C@@H]1O)N2C)OCO4` [Compound 19-R], for which the TGI with PSN1 cells (PSN1, 72 hours treatment, SRB) is 1.35E−09 Molar; in the data set on MDA-MB-231 cells (setting [5]), 1.35E−09 Molar; in the data set with A549 cells (A549, 72 hours treatment, SRB), 3.56E−09 Molar. Also, the CC50 with MDA-MB-231 cells (setting [5]) is more than 123 nM; in the data set with A549 cells (A549, 72 hours treatment, SRB) it was more than 123 nM. In data set [1], this compound displayed an MTMD of 0.15 mg/kg. This compound also came in with an MTD in data set [2] of 0.15 mg/kg.

Consider `COc1ccc2[nH]c3c(c2c1)C[C@@H](CO)N[C@]31CS[C@@H]2c3c(OC(C)=O)c(C)c4c(c3[C@H](COC1=O)N1[C@@H]2[C@H]2c3c(cc(C)c(OC)c3O)C[C@@H]([C@@H]1O)N2C)OCO4` [Compound 19-S], for which the 50% growth inhibitory concentration (GI50) (in general, the concentration that inhibits growth by half) with HT29 cells (HT29, 72 hours treatment, SRB) is 1.35 nM; with PSN1 cells (PSN1, 72 hours treatment, SRB) it was 2.95 nM; in the data set with MDA-MB-231 cells (setting [5]), 1.96 nM; in the data set with A549 cells (A549, 72 hours treatment, SRB) it was 3.07 nM. The TGI with HT29 cells (HT29, 72 hours treatment, SRB) turned out to be 1.60E−09 Molar; in the data set on PSN1 cells (PSN1, 72 hours treatment, SRB) it was 3.19E−09 Molar; in the data set with MDA-MB-231 cells (setting [5]), 3.31E−09 Molar; with A549 cells (A549, 72 hours treatment, SRB), 3.31E−09 Molar. Moreover, the CC50 is more than 123 nM in the data set with HT29 cells (HT29, 72 hours treatment, SRB); more than 123 nM in the data set on PSN1 cells (PSN1, 72 hours treatment, SRB); 11 nM in the data set with MDA-MB-231 cells (setting [5]); more than 123 nM in the data set with A549 cells (A549, 72 hours treatment, SRB). The same compound yielded an MTMD in data set [1] of 0.75 mg/kg. In [2], this compound gave a maximal tolerated dose (MTD) of 0.5 mg/kg.

Turning to `COc1ccc2oc3c(c2c1)CCN[C@]31CS[C@@H]2c3c(OC(C)=O)c(C)c4c(c3[C@H](COC1=O)N1[C@@H]2[C@H]2c3c(cc(C)c(OC)c3O)C[C@@H]([C@@H]1O)N2C)OCO4` [Compound 35], the GI50 worked out at 7.89 nM with HT29 cells (Homo sapiens, HT-29, 72 h); 6.24 nM with PSN1 cells (Homo sapiens, PSN1, 72 h); 4.58 nM with MDA-MB-231 cells (Homo sapiens, MDA-MB-231, 72 h); 8.14 nM in the data set with A549 cells (Homo sapiens, A549, 72 h). Further, the CC50 with HT29 cells (Homo sapiens, HT-29, 72 h) is more than 127 nM; with PSN1 cells (Homo sapiens, PSN1, 72 h), 14 nM; in the data set on MDA-MB-231 cells (Homo sapiens, MDA-MB-231, 72 h), 16.5 nM; with A549 cells (Homo sapiens, A549, 72 h), more than 127 nM. The IC (TGI) with HT29 cells (Homo sapiens, HT-29, 72 h) stood at 8.65 nM; in the data set on PSN1 cells (Homo sapiens, PSN1, 72 h), 9.03 nM; in the data set with MDA-MB-231 cells (Homo sapiens, MDA-MB-231, 72 h), 8.27 nM; in the data set with A549 cells (Homo sapiens, A549, 72 h), 8.78 nM. The compound also registered an MTMD in [1] of 0.25 mg/kg.

Consider `COc1ccc2[nH]c3c(c2c1)CCN[C@]31CS[C@@H]2c3c(OC(C)=O)c(C)c4c(c3[C@H](COC1=O)N1[C@@H]2[C@H]2c3c(cc(C)c(OC)c3O)C[C@@H]([C@@H]1O)N2C)OCO4` [PM01183], for which the GI50 in the data set with HT29 cells (Homo sapiens, HT-29, 72 h) is 1.91 nM; in the data set with PSN1 cells (Homo sapiens, PSN1, 72 h), 3.19 nM; in the data set on MDA-MB-231 cells (Homo sapiens, MDA-MB-231, 72 h) it was 2.29 nM; in the data set on A549 cells (Homo sapiens, A549, 72 h) it was 3.31 nM. Also, the CC50 is more than 127 nM in the data set on HT29 cells (Homo sapiens, HT-29, 72 h); 5.73 nM in the data set with PSN1 cells (Homo sapiens, PSN1, 72 h); 10.2 nM in the data set with MDA-MB-231 cells (Homo sapiens, MDA-MB-231, 72 h); more than 127 nM with A549 cells (Homo sapiens, A549, 72 h). The IC (TGI) with HT29 cells (Homo sapiens, HT-29, 72 h) was 4.46 nM; with PSN1 cells (Homo sapiens, PSN1, 72 h) it was 3.95 nM; in the data set with MDA-MB-231 cells (Homo sapiens, MDA-MB-231, 72 h) it was 3.95 nM; with A549 cells (Homo sapiens, A549, 72 h) it was 3.57 nM. Further, the in vitro activity result in data set [3] is reported as “highly potent in vitro activity”. Also, the in vivo activity result in [4] was “significant in vivo activity”.
